“Also recorded” adds a separate entry of the source. Like-named read-outs stand apart in the source and are kept apart here.
Experiments:
Format in all cases: cell-based
P. gingivalis = assay: Inhibition of growth of oral bacteria, P. gingivalis
Experimental: (§1) The concentration of 500 μM of mogroside II, III, IV, V, VI, 11-o-Mogroside V, and Siamenoside I, siraitiflavandiol, rhamnocitrin-3-O-rhamnoside, and kaempferitrin were used to test the inhibition activity against the growth of oral bacteria, A. actinomycetemcomitans and P. gingivalis.

C. albicans = assay: In vitro inhibition of growth of C. albicans
Experimental: Mogroside II, III, IV, V, VI, 11-o-Mogroside V, and Siamenoside I were also evaluated in vitro for inhibition of growth of C. albicans.

A. actinomycetemcomitans = assay: Inhibition of growth of oral bacteria, A. actinomycetemcomitans; conditions: 500 μM
Experimental: as §1

Compound | antimicrobial activity against P. gingivalis (growth inhibition) (P. gingivalis; 500 μM) | antimicrobial activity against C. albicans (growth inhibition) (C. albicans; in vitro) | antimicrobial activity against A. actinomycetemcomitans (growth inhibition) (A. actinomycetemcomitans) | antimicrobial activity against P. gingivalis (growth inhibition) (P. gingivalis) | antimicrobial activity against C. albicans (growth inhibition) (C. albicans)
C[C@@H]1O[C@@H](Oc2cc(O)c3c(=O)c(O[C@@H]4O[C@@H](C)[C@H](O)[C@@H](O)[C@H]4O)c(-c4ccc(O)cc4)oc3c2)[C@H](O)[C@H](O)[C@H]1O [kaempferitrin] | highest activity | good activity |  |  | 
C[C@H](CC[C@@H](O[C@@H]1O[C@H](CO[C@@H]2O[C@H](CO)[C@@H](O)[C@H](O)[C@H]2O)[C@@H](O)[C@H](O)[C@H]1O[C@@H]1O[C@H](CO)[C@@H](O)[C@H](O)[C@H]1O)C(C)(C)O)[C@H]1CC[C@@]2(C)[C@H]3CC=C4[C@H](CC[C@H](O[C@@H]5O[C@H](CO[C@@H]6O[C@H](CO)[C@@H](O)[C@H](O)[C@H]6O)[C@@H](O)[C@H](O)[C@H]5O[C@@H]5O[C@H](CO)[C@@H](O)[C@H](O)[C@H]5O)C4(C)C)[C@]3(C)[C@H](O)C[C@]12C [mogroside VI] | higher antimicrobial activity than mogroside III | mogroside II, III, IV, V, and 11-o-Mogroside V showed higher antimicrobial activity than mogroside VI and Siamenoside I | higher antimicrobial activity than mogroside II and III |  | 
C[C@H](CC[C@@H](O[C@@H]1O[C@H](CO[C@@H]2O[C@H](CO)[C@@H](O)[C@H](O)[C@H]2O)[C@@H](O)[C@H](O)[C@H]1O)C(C)(C)O)[C@H]1CC[C@@]2(C)[C@@H]3CC=C4[C@@H](CC[C@H](O[C@@H]5O[C@H](CO)[C@@H](O)[C@H](O)[C@H]5O)C4(C)C)[C@]3(C)[C@H](O)C[C@]12C [mogroside III] | mogroside II, IV, V, VI, 11-o-Mogroside V showed higher antimicrobial activity than mogroside III | higher antimicrobial activity than mogroside VI and Siamenoside I | mogroside IV, V, VI, 11-o-Mogroside V showed higher antimicrobial activity than mogroside II and III |  | 
C[C@H](CC[C@@H](O[C@@H]1O[C@H](CO[C@@H]2O[C@H](CO)[C@@H](O)[C@H](O)[C@H]2O)[C@@H](O)[C@H](O)[C@H]1O[C@@H]1O[C@H](CO)[C@@H](O)[C@H](O)[C@H]1O)C(C)(C)O)[C@H]1CC[C@@]2(C)[C@@H]3CC=C4[C@@H](CC[C@H](O[C@@H]5O[C@H](CO[C@@H]6O[C@H](CO)[C@@H](O)[C@H](O)[C@H]6O)[C@@H](O)[C@H](O)[C@H]5O)C4(C)C)[C@]3(C)[C@H](O)C[C@]12C [mogroside V, Mogroside V] | higher antimicrobial activity than mogroside III | higher antimicrobial activity than mogroside VI and Siamenoside I | higher antimicrobial activity than mogroside II and III; also recorded: highest activity |  | 
siraitiflavandiol | highest activity | good activity |  |  | 
C[C@H](CC[C@@H](O[C@@H]1O[C@H](CO[C@@H]2O[C@H](CO)[C@@H](O)[C@H](O)[C@H]2O)[C@@H](O)[C@H](O)[C@H]1O[C@@H]1O[C@H](CO)[C@@H](O)[C@H](O)[C@H]1O)C(C)(C)O)[C@H]1CC[C@@]2(C)[C@@H]3CC=C4[C@@H](CC[C@H](O[C@@H]5O[C@H](CO)[C@@H](O)[C@H](O)[C@H]5O)C4(C)C)[C@]3(C)[C@H](O)C[C@]12C [Siamenoside I] |  | mogroside II, III, IV, V, and 11-o-Mogroside V showed higher antimicrobial activity than mogroside VI and Siamenoside I |  |  | 
C[C@H](CC[C@@H](O[C@@H]1O[C@H](CO)[C@@H](O)[C@H](O)[C@H]1O[C@@H]1O[C@H](CO)[C@@H](O)[C@H](O)[C@H]1O)C(C)(C)O)[C@H]1CC[C@@]2(C)[C@H]3CC=C4[C@@H](CC[C@H](O[C@@H]5O[C@H](CO[C@@H]6O[C@H](CO)[C@@H](O)[C@H](O)[C@H]6O)[C@@H](O)[C@H](O)[C@H]5O)C4(C)C)[C@]3(C)[C@H](O)C[C@]12C [mogroside IV] | higher antimicrobial activity than mogroside III | higher antimicrobial activity than mogroside VI and Siamenoside I | higher antimicrobial activity than mogroside II and III |  | 
C[C@H](CC[C@@H](O[C@@H]1O[C@H](CO[C@@H]2O[C@H](CO)[C@@H](O)[C@H](O)[C@H]2O)[C@@H](O)[C@H](O)[C@H]1O[C@@H]1O[C@H](CO)[C@@H](O)[C@H](O)[C@H]1O)C(C)(C)O)[C@H]1CC[C@@]2(C)[C@@H]3CC=C4[C@@H](CC[C@H](O[C@@H]5O[C@H](CO[C@@H]6O[C@H](CO)[C@@H](O)[C@H](O)[C@H]6O)[C@@H](O)[C@H](O)[C@H]5O)C4(C)C)[C@]3(C)C(=O)C[C@]12C [11-o-Mogroside V] | higher antimicrobial activity than mogroside III | higher antimicrobial activity than mogroside VI and Siamenoside I | higher antimicrobial activity than mogroside II and III |  | 
rhamnocitrin-3-O-rhamnoside |  |  |  | highest activity | good activity
mogroside II | higher antimicrobial activity than mogroside III | higher antimicrobial activity than mogroside VI and Siamenoside I | mogroside IV, V, VI, 11-o-Mogroside V showed higher antimicrobial activity than mogroside II and III |  | 

Reference: patent US20120141386A1, “Application of Antimicrobial and Glycemic Control Activities of Lo Han Kuo Fruit (Siraitia grosvenorii)” (ORACEUTICALS, INC., priority 2010, published 2012)
